Data taken from ChEMBL document CHEMBL3779783, “Short cationic lipopeptides as effective antibacterial agents: Design, physicochemical properties and biological evaluation” (Bioorg Med Chem, 2016).
In brackets after ≈: the same amount, converted by molar mass. Activity calls are given as the source filed them. The rule behind the calls is not given here. Non-standard residues stand in square brackets, D forms with d. Residues, ends and D or L forms follow the SMILES beside them. ξ: configuration not given here. ξGly(decyl) = CCCCCCCCCCC(N)C(=O)O

Experiments:
[1] = system: Enterococcus faecium; assay: Antimicrobial activity against multidrug resistant and high level vancomycin resistant Enterococcus faecium ATCC 51559 after 20 hrs by microdilution assay; type: functional; conditions: ATCC 51559, 20 h
[2] = system: Staphylococcus aureus; assay: Antimicrobial activity against clinical isolates of methicillin-resistant Staphylococcus aureus after 20 hrs by microdilution assay; type: functional
[3] = system: Staphylococcus aureus; assay: Antimicrobial activity against vancomycin-resistant Staphylococcus aureus NARSA VRS4 after 20 hrs by microdilution assay; type: functional; conditions: NARSA VRS4, 20 h
[4] = system: Staphylococcus aureus; assay: Antimicrobial activity against glycopeptide-intermediate Staphylococcus aureus NRS17 after 20 hrs by microdilution assay; type: functional; conditions: NRS17, 20 h
[5] = system: Staphylococcus aureus; assay: Antimicrobial activity against methicillin-susceptible Staphylococcus aureus ATCC 25923 assessed as blister appearance on cell surface at 16 times MIC after 3 hrs by transmission electron microscopic analysis; type: functional, organism-based
[6] = system: Staphylococcus aureus; assay: Antimicrobial activity against clinical isolates of multi-resistant/methicillin-resistant Staphylococcus aureus after 20 hrs by microdilution assay; type: functional
[7] = system: Staphylococcus aureus; assay: Antimicrobial activity against methicillin-susceptible Staphylococcus aureus ATCC 25923 assessed as surface blebs at 16 times MIC after 3 hrs by transmission electron microscopic analysis; type: functional, organism-based
[8] = system: Staphylococcus aureus; assay: Antimicrobial activity against glycopeptide-intermediate Staphylococcus aureus NRS1 after 20 hrs by microdilution assay; type: functional; conditions: NRS1, 20 h
[9] = system: Staphylococcus aureus; assay: Antimicrobial activity against vancomycin-resistant Staphylococcus aureus NARSA VRS10 after 20 hrs by microdilution assay; type: functional; conditions: NARSA VRS10, 20 h
[10] = system: Staphylococcus aureus; assay: Antimicrobial activity against methicillin-resistant Staphylococcus aureus ATCC 43300 after 20 hrs by microdilution assay; type: functional; conditions: ATCC 43300, 20 h
[11] = system: Staphylococcus aureus; assay: Antimicrobial activity against methicillin-susceptible Staphylococcus aureus ATCC 25923 after 20 hrs by microdilution assay; type: functional; conditions: ATCC 25923, 20 h
[12] = system: Staphylococcus aureus; assay: Antimicrobial activity against vancomycin-resistant Staphylococcus aureus NARSA VRS1 after 20 hrs by microdilution assay; type: functional; conditions: NARSA VRS1, 20 h
[13] = system: Enterococcus faecalis; assay: Antimicrobial activity against clinical isolates of high level vancomycin-resistant Enterococcus faecalis after 20 hrs by microdilution assay; type: functional
[14] = system: Streptococcus pneumoniae; assay: Antimicrobial activity against multidrug resistant Streptococcus pneumoniae ATCC 700677 after 20 hrs by microdilution assay; type: functional; conditions: ATCC 700677, 20 h
[15] = system: Staphylococcus aureus; assay: Antimicrobial activity against clinical isolates of multi-resistant/methicillin-resistant Staphylococcus aureus after 24 hrs by M7-A7 method; type: functional
[16] = system: Enterococcus faecalis; assay: Antimicrobial activity against clinical isolates of high level vancomycin-resistant Enterococcus faecalis after 24 hrs by M7-A7 method; type: functional
[17] = Metabolic stability in 0.1 M NH4HCO3 buffer at pH 8.16 assessed as trypsin (unknown origin)-mediated compound degradation after 2 to 12 hrs by RP-HPLC method; type: ADME; conditions: human
[18] = system: Staphylococcus aureus; assay: Antimicrobial activity against vancomycin-resistant Staphylococcus aureus NARSA VRS4 after 24 hrs by M7-A7 method; type: functional; conditions: NARSA VRS4, 24 h
[19] = system: Streptococcus pneumoniae; assay: Antimicrobial activity against multidrug resistant Streptococcus pneumoniae ATCC 700677 after 24 hrs by M7-A7 method; type: functional; conditions: ATCC 700677, 24 h
[20] = system: Enterococcus faecium; assay: Antimicrobial activity against multidrug resistant and high level vancomycin resistant Enterococcus faecium ATCC 51559 after 24 hrs by M7-A7 method; type: functional; conditions: ATCC 51559, 24 h
[21] = system: Staphylococcus aureus; assay: Antimicrobial activity against methicillin-susceptible Staphylococcus aureus ATCC 25923 assessed as membrane burst at 16 times MIC after 3 hrs by transmission electron microscopic analysis; type: functional, organism-based
[22] = system: Staphylococcus aureus; assay: Antimicrobial activity against clinical isolates of methicillin-resistant Staphylococcus aureus after 24 hrs by M7-A7 method; type: functional
[23] = system: Acinetobacter baumannii; assay: Antimicrobial activity against Acinetobacter baumannii […] after 24 hrs by M7-A7 method; type: functional
[24] = system: Staphylococcus aureus; assay: Antimicrobial activity against vancomycin-resistant Staphylococcus aureus NARSA VRS10 after 24 hrs by M7-A7 method; type: functional; conditions: NARSA VRS10, 24 h
[25] = system: Staphylococcus aureus; assay: Antimicrobial activity against vancomycin-resistant Staphylococcus aureus NARSA VRS1 after 24 hrs by M7-A7 method; type: functional; conditions: NARSA VRS1, 24 h
[26] = system: Klebsiella pneumoniae; assay: Antimicrobial activity against NDM-1 positive Klebsiella pneumoniae BAA-2146 after 24 hrs by M7-A7 method; type: functional; conditions: ATCC BAA-2146, 24 h
[27] = system: Staphylococcus aureus; assay: Antimicrobial activity against methicillin-resistant Staphylococcus aureus ATCC 43300 after 24 hrs by M7-A7 method; type: functional; conditions: ATCC 43300, 24 h
[28] = system: Staphylococcus aureus; assay: Antimicrobial activity against glycopeptide-intermediate Staphylococcus aureus NRS1 after 24 hrs by M7-A7 method; type: functional; conditions: NRS1, 24 h
[29] = system: Klebsiella pneumoniae; assay: Antimicrobial activity against multidrug resistant Klebsiella pneumoniae ATCC 700603 after 24 hrs by M7-A7 method; type: functional; conditions: Klebsiella pneumoniae, 700603, 24 h
[30] = system: Staphylococcus aureus; assay: Antimicrobial activity against glycopeptide-intermediate Staphylococcus aureus NRS17 after 24 hrs by M7-A7 method; type: functional; conditions: NRS17, 24 h
[31] = system: Escherichia coli; assay: Antimicrobial activity against Escherichia coli ATCC 25922 after 24 hrs by M7-A7 method; type: functional; conditions: ATCC 25922, 24 h
[32] = system: Pseudomonas aeruginosa; assay: Antimicrobial activity against Pseudomonas aeruginosa ATCC 27853 after 24 hrs by M7-A7 method; type: functional; conditions: ATCC 27853, 24 h
[33] = system: Klebsiella pneumoniae; assay: Antimicrobial activity against Klebsiella pneumoniae ATCC 13883 after 24 hrs by M7-A7 method; type: functional; conditions: ATCC 13883, 24 h
[34] = system: Klebsiella pneumoniae; assay: Antimicrobial activity against multidrug resistant Klebsiella pneumoniae ATCC 700603 after 20 hrs by microdilution assay; type: functional; conditions: Klebsiella pneumoniae, 700603, 20 h
[35] = system: Pseudomonas aeruginosa; assay: Antimicrobial activity against Pseudomonas aeruginosa ATCC 27853 after 20 hrs by microdilution assay; type: functional; conditions: ATCC 27853, 20 h
[36] = system: Acinetobacter baumannii; assay: Antimicrobial activity against Acinetobacter baumannii […] after 20 hrs by microdilution assay; type: functional
[37] = Cytotoxicity against human HepG2 cells after 24 hrs by MTT assay; type: cell-based
[38] = system: Escherichia coli; assay: Antimicrobial activity against Escherichia coli ATCC 25922 after 20 hrs by microdilution assay; type: functional; conditions: ATCC 25922, 20 h
[39] = system: Klebsiella pneumoniae; assay: Antimicrobial activity against Klebsiella pneumoniae ATCC 13883 after 20 hrs by microdilution assay; type: functional; conditions: ATCC 13883, 20 h
[40] = system: Klebsiella pneumoniae; assay: Antimicrobial activity against NDM-1 positive Klebsiella pneumoniae BAA-2146 after 20 hrs by microdilution assay; type: functional; conditions: ATCC BAA-2146, 20 h
[41] = Cytotoxicity against HEK293 cells after 24 hrs by MTT assay; type: cell-based; conditions: human

Structure (SMILES) | MIC [1] [µM] | MIC [2] [µM] | MIC [3] [µM] | MIC [4] [µM] | MIC [6] [µM] | MIC [8] [µM] | MIC [9] [µM] | MIC [10] [µM] | MIC [11] [µM] | MIC [12] [µM] | MIC [13] [µM] | MIC [14] [µM] | MIC [34] [µM] | MIC [35] [µM] | MIC [36] [µM] | CC50 at 24 h [37] [µM] | MIC [38] [µM] | MIC [39] [µM] | MIC [40] [µM] | CC50 at 24 h [41] [µM] | other results
CN[C@@H](CC(C)C)C(=O)N[C@H]1C(=O)N[C@@H](CC(N)=O)C(=O)N[C@H]2C(=O)N[C@H]3C(=O)N[C@H](C(=O)N[C@@H](C(=O)O)c4cc(O)cc(O)c4-c4cc3ccc4O)[C@H](O)c3ccc(c(Cl)c3)Oc3cc2cc(c3O[C@H]2O[C@@H](CO)[C@H](O)[C@@H](O)[C@@H]2O[C@@H]2C[C@@](C)(N)[C@@H](O)[C@@H](C)O2)Oc2ccc(cc2Cl)[C@H]1O | > 44 | 5.5 (≈ 7.97 µg/mL) | > 44 | 2.8 (≈ 4.06 µg/mL) | 1 (≈ 1.45 µg/mL) | 1 (≈ 1.45 µg/mL) | > 44 | 0.6 (≈ 0.87 µg/mL) | 0.7 (≈ 1.01 µg/mL) | > 44 | > 44 | 0.7 (≈ 1.01 µg/mL) | – | – | – | – | – | – | – | – | Activity [5]: Active; Activity [7]: Active
CCCCCCCCCCC(NC(=O)C(CCCCCCCCCC)NC(=O)C(CCCCN)NC(=O)C(CCCCN)NC(C)=O)C(=O)NC(CCCCNC(C)=O)C(=O)NCC(N)=O (stereo not drawn) (Ac-KK[ξGly(decyl)][ξGly(decyl)]K(Ac)G-NH2; configuration not given here) | – | – | – | – | – | – | – | – | – | – | – | – | – | – | – | – | – | – | – | – | MIC [15]: 3.8 µM (≈ 3.56 µg/mL); MIC [16]: 1.9 µM (≈ 1.78 µg/mL); Stability [17]: Stable; MIC [18]: 2.8 µM (≈ 2.62 µg/mL); MIC [19]: 3.8 µM (≈ 3.56 µg/mL); MIC [20]: 2.8 µM (≈ 2.62 µg/mL); Activity [21]: Active; MIC [22]: 11.3 µM (≈ 10.6 µg/mL); MIC [23]: 7.5 µM (≈ 7.03 µg/mL); MIC [24]: 2.8 µM (≈ 2.62 µg/mL); MIC [25]: 1.9 µM (≈ 1.78 µg/mL); MIC [26]: > 15 µM; MIC [27]: 1.9 µM (≈ 1.78 µg/mL); MIC [28]: 1.9 µM (≈ 1.78 µg/mL); MIC [29]: > 15 µM; MIC [30]: 2.8 µM (≈ 2.62 µg/mL); MIC [31]: 15 µM (≈ 14.1 µg/mL); MIC [32]: 7.5 µM (≈ 7.03 µg/mL); MIC [33]: 15 µM (≈ 14.1 µg/mL)
CCCCCCCCCCC(NC(=O)C(CCCCNC(=O)C(CCCCN)NC(C)=O)NC(=O)C(CCCCN)NC(C)=O)C(N)=O (stereo not drawn) | > 30 | > 30 | > 30 | > 30 | > 30 | > 30 | > 30 | > 30 | > 30 | > 30 | 30 (≈ 20.5 µg/mL) | > 30 | > 30 | > 30 | > 30 | > 15 | > 30 | > 30 | > 30 | > 15 | –
CCCCCCCCCCC(NC(=O)C(CCCCCCCCCC)NC(=O)C(CCCCNC(=O)C(N)CCCCN)NC(=O)C(N)CCCCN)C(N)=O (stereo not drawn) (H-KK(Lys)[ξGly(decyl)][ξGly(decyl)]-NH2; configuration not given here) | 0.2 (≈ 0.159 µg/mL) | 0.1 (≈ 0.0796 µg/mL) | 0.2 (≈ 0.159 µg/mL) | 0.1 (≈ 0.0796 µg/mL) | 0.1 (≈ 0.0796 µg/mL) | 0.1 (≈ 0.0796 µg/mL) | 0.1 (≈ 0.0796 µg/mL) | 0.1 (≈ 0.0796 µg/mL) | 0.06 (≈ 0.0478 µg/mL) | 0.1 (≈ 0.0796 µg/mL) | 0.2 (≈ 0.159 µg/mL) | 0.2 (≈ 0.159 µg/mL) | > 30 | 30 (≈ 23.9 µg/mL) | > 30 | ≥ 15 | 30 (≈ 23.9 µg/mL) | > 30 | > 30 | > 15 | –
